According to US20250154172A1, “PRMT5 INHIBITORS AND USES THEREOF” (Gilead Sciences, Inc., priority 2023, published 2025):

Legend:
[1] = tested on: Calu-6; experiment: Cell viability assay for additional cell lines: Calu-6; assay type: cell-based; conditions: Homo sapiens, 216 h, 9-day treatment, average of n=2, read-out: MTAP-WT GI50
Description: (§1) Some Compounds of the Disclosure were tested in Calu-6 (Vendor: ATCC; Cat #HTB-56; Description: lung, adenocarcinoma), LU99 (Vendor: JCRB; Cat #JCRB0080; Description: non-small cell lung cancer), SW780 (Vendor: ATCC; Cat #CRL-2169; Description: bladder urothelial carcinoma), BxPC-3 (Vendor: ATCC; Cat #CRL-1687; Description: pancreatic adenocarcinoma), Panc-1 (Vendor: ATCC; Cat #CRL-1469 Description: pancreatic adenocarcinoma), AsPC-1 (Vendor: ATCC; Cat #CRL-1682; Description: pancreatic adenocarcinoma), Calu-6 (Vendor: ATCC; Cat #HTB-56; Description: non-small cell lung cancer), and U-2 OS (Vendor: ATCC; Cat #HTB-96; Description: osteosarcoma), cellular viability assays according to the general protocol. Seeded cells into 96-well plate and incubated overnight. Seeded an additional 10 wells per cell line in an additional 96-well plate for assessing Time Zero luminescence and incubated overnight. To treatment plates, added compounds into each well using Tecan D300e dispenser (nine three-fold dilutions starting at 10 μM) and incubated for 9 days. Time Zero (no compound treatment, luminescence assessed on day 1) and 9-day treatment (luminescence assessed on day 10) plates were assessed using the same CellTiter-Glo® substrate protocol. […] Recorded luminescence with Perkin Elmer Envision 2105 machine. Analyzed the data with GraphPad software. […]

[2] = Sprague-Dawley Rat PK; assay type: in vivo; conditions: for BPR: Blood plasma ratio; for clearance / half-life / Vd: IV 0.33 mg/Kg; for clearance: plasma clearance, read-out: Observed CLp (converted); for Fold IVIVc: [Observed CLp/[BPR]/[Predicted Hepatocyte CL]; for half-life / Vd: plasma; for Vd: read-out: Vss
From the text: The following abbreviations are defined as follows for table 5. BPR: Blood plasma ratio, CLp: plasma clearance.
Cell viability assay data for LU99, SW780, BxPC-3, Panc-1, AsPC-1, Calu-6 and U-2 OS for AMG-193 and example Ca-47 are provided in Table 4. The following abbreviations are defined as follows for table 5. BPR: Blood plasma ratio, CLp: plasma clearance. Fold IVIVc=[Observed CLp/[BPR]/[Predicted Hepatocyte CL]

[3] = tested on: Panc-1; experiment: Cell viability assay for additional cell lines: Panc-1; assay type: cell-based; conditions: for GI50: Homo sapiens, 216 h, 9-day treatment, average of n=2, read-out: MTAP-Deleted GI50
Description: (§2) Some Compounds of the Disclosure were tested in Calu-6 (Vendor: ATCC; Cat #HTB-56; Description: lung, adenocarcinoma), LU99 (Vendor: JCRB; Cat #JCRB0080; Description: non-small cell lung cancer), SW780 (Vendor: ATCC; Cat #CRL-2169; Description: bladder urothelial carcinoma), BxPC-3 (Vendor: ATCC; Cat #CRL-1687; Description: pancreatic adenocarcinoma), Panc-1 (Vendor: ATCC; Cat #CRL-1469 Description: pancreatic adenocarcinoma), AsPC-1 (Vendor: ATCC; Cat #CRL-1682; Description: pancreatic adenocarcinoma), Calu-6 (Vendor: ATCC; Cat #HTB-56; Description: non-small cell lung cancer), and U-2 OS (Vendor: ATCC; Cat #HTB-96; Description: osteosarcoma), cellular viability assays according to the general protocol. Seeded cells into 96-well plate and incubated overnight. Seeded an additional 10 wells per cell line in an additional 96-well plate for assessing Time Zero luminescence and incubated overnight. To treatment plates, added compounds into each well using Tecan D300e dispenser (nine three-fold dilutions starting at 10 μM) and incubated for 9 days. Time Zero (no compound treatment, luminescence assessed on day 1) and 9-day treatment (luminescence assessed on day 10) plates were assessed using the same CellTiter-Glo® substrate protocol. Thawed CellTiter-Glo® Buffer and lyophilized CellTiter-Glo® substrate and equilibrated to room temperature prior to use. The DMSO concentration was normalized to 0.137%. Transferred 100 ml CellTiter-Glo® Buffer into amber bottle containing CellTiter-Glo® substrate to reconstitute the lyophilized enzyme/substrate mixture. For Time Zero and 9-day treatment plates, removed all plating media. Added 100 μl fresh media/well. Added 100 μl CellTiter-Glo® Reagent per well. Mixed contents for 10 min on an orbital shaker to lyse cells. Recorded luminescence with Perkin Elmer Envision 2105 machine. Analyzed the data with GraphPad software. Potency fold difference is defined as GI50 (AMG193)/GI50 (Ca-47) for the MTAP^del cell line of interest. The structure of AMG193 is as follows.

[4] = tested on: AsPC-1; experiment: Cell viability assay for additional cell lines: AsPC-1; assay type: cell-based; conditions: Homo sapiens, ASPC1, 216 h, 9-day treatment, average of n=2, read-out: MTAP-WT GI50
Description: as §1

[5] = tested on: BxPC-3; experiment: Cell viability assay for additional cell lines: BxPC-3; assay type: cell-based; conditions: for GI50: Homo sapiens, 216 h, 9-day treatment, average of n=2, read-out: MTAP-Deleted GI50
Description: as §2

Structure (SMILES): Nc1nc2cnc(C(=O)N3CCOC[C@@H]3c3ccc(C(F)(F)F)cc3)cc2c2c1COC2 [AMG193, reference compound]
- GI50 [1]: 7 µM
- BPR [2]: 0.95
- clearance [2]: 2.26 L/h/kg
- Fold IVIVc [2]: 1x
- half-life [2]: 1.1 h
- Vd [2]: 1.82 L/kg
- GI50 [3]: 0.517 µM
- GI50 [4]: > 10 µM
- GI50 [5]: 0.068 µM

Structure (SMILES): Nc1nc2cnc(C(=O)N3CCC[C@@H]4Oc5cc(C(F)(F)F)cc(F)c5[C@@H]43)cc2c2c1COC2 [Example Ca-47, (4-amino-1,3-dihydrofuro[3,4-c][1,7]naphthyridin-8-yl)((4aS,9bS)-9-fluoro-7-(trifluoromethyl)-3,4,4a,9b-tetrahydrobenzofuro[3,2-b]pyridin-1(2H)-yl)methanone]
- GI50 [1]: 1.6 µM
- BPR [2]: 0.89
- clearance [2]: 0.85 L/h/kg
- Fold IVIVc [2]: 0.37x
- half-life [2]: 2.5 h
- Vd [2]: 2.08 L/kg
- Potency fold difference ([3]; GI50 (AMG193)/GI50 (Ca-47)): 5.9
- GI50 [3]: 0.087 µM
- GI50 [4]: 2.8 µM
- Potency fold difference ([5]; GI50 (AMG193)/GI50 (Ca-47)): 4.3
- GI50 [5]: 0.016 µM
